PubChem BioAssay (NCI)
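In this assay, cells in 96-well plates receive the compound at five concentrations for 48 hours. Endpoints are linearly interpolated between the surrounding concentrations. At the TGI there is no net growth.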

How the values were obtained:
Assay in all cases: growth of human tumour cells (NCI), 48 h
OVCAR-5 ovarian = test system: OVCAR-5 ovarian
A549 NSCLC = test system: A549 NSCLC
NCI-H522 lung = test system: NCI-H522 lung
U251 CNS = test system: U251 CNS
786-0 renal = test system: 786-0 renal
IGROV1 ovarian = test system: IGROV1 ovarian
HCT-15 colon = test system: HCT-15 colon
SNB-75 CNS = test system: SNB-75 CNS
HCT-116 colon = test system: HCT-116 colon
MDA-MB-435 = test system: MDA-MB-435
NCI-H23 lung = test system: NCI-H23 lung
SK-OV-3 ovarian = test system: SK-OV-3 ovarian
HT29 colon = test system: HT29 colon
HL-60(TB) leukemia = test system: HL-60(TB) leukemia
EKVX NSCLC = test system: EKVX NSCLC
K-562 leukemia = test system: K-562 leukemia
UO-31 renal = test system: UO-31 renal
DU-145 prostate = test system: DU-145 prostate
LOX IMVI melanoma = test system: LOX IMVI melanoma
SK-MEL-2 melanoma = test system: SK-MEL-2 melanoma
CCRF-CEM leukemia = test system: CCRF-CEM leukemia
CAKI-1 renal = test system: CAKI-1 renal
MOLT-4 leukemia = test system: MOLT-4 leukemia
SF-268 CNS = test system: SF-268 CNS
SF-539 CNS = test system: SF-539 CNS
SN12C renal = test system: SN12C renal
PC-3 prostate = test system: PC-3 prostate
MDA-MB-231 breast = test system: MDA-MB-231 breast
BT-549 breast = test system: BT-549 breast
SNB-19 CNS = test system: SNB-19 CNS
A498 renal = test system: A498 renal
NCI/ADR-RES ovarian = test system: NCI/ADR-RES ovarian
MALME-3M melanoma = test system: MALME-3M melanoma
HS 578T breast = test system: HS 578T breast
T-47D breast = test system: T-47D breast
SW-620 colon = test system: SW-620 colon
UACC-257 melanoma = test system: UACC-257 melanoma
MDA-N = test system: MDA-N
M14 melanoma = test system: M14 melanoma
SK-MEL-5 melanoma = test system: SK-MEL-5 melanoma
TK-10 renal = test system: TK-10 renal
HCC-2998 colon = test system: HCC-2998 colon
COLO 205 colon = test system: COLO 205 colon
ACHN renal = test system: ACHN renal
SF-295 CNS = test system: SF-295 CNS
OVCAR-8 ovarian = test system: OVCAR-8 ovarian
KM12 colon = test system: KM12 colon
RPMI-8226 leukemia = test system: RPMI-8226 leukemia
NCI-H460 lung = test system: NCI-H460 lung
SK-MEL-28 melanoma = test system: SK-MEL-28 melanoma
MCF7 breast = test system: MCF7 breast
NCI-H226 lung = test system: NCI-H226 lung
OVCAR-4 ovarian = test system: OVCAR-4 ovarian
UACC-62 melanoma = test system: UACC-62 melanoma
OVCAR-3 ovarian = test system: OVCAR-3 ovarian
RXF 393 renal = test system: RXF 393 renal
HOP-62 NSCLC = test system: HOP-62 NSCLC
HOP-92 NSCLC = test system: HOP-92 NSCLC

Measured: TGI

CC1=CCCC(C)(O)C2CC(CCC3(C)OC3CC1)C(C)C(=O)O2 (stereo not given)
not listed: RXF 393 renal | HOP-62 NSCLC | HOP-92 NSCLC
> 100 µM: all other assays above

COc1ccc2nc3cccc([N+](=O)[O-])c3c(NCCN(C)C)c2c1
0.491 µM: MOLT-4 leukemia
0.441 µM: HT29 colon
0.272 µM: SK-MEL-2 melanoma
0.279 µM: A549 NSCLC
0.31 µM: SK-MEL-28 melanoma
0.262 µM: MDA-N
0.347 µM: A498 renal
0.373 µM: NCI/ADR-RES ovarian
0.659 µM: TK-10 renal
0.213 µM: MALME-3M melanoma
0.39 µM: IGROV1 ovarian
0.829 µM: SNB-19 CNS
0.184 µM: BT-549 breast
0.312 µM: OVCAR-3 ovarian
0.0487 µM: NCI-H522 lung
0.384 µM: UACC-257 melanoma
0.0672 µM: NCI-H460 lung
0.362 µM: NCI-H23 lung
0.219 µM: SK-MEL-5 melanoma
0.746 µM: CAKI-1 renal
0.357 µM: MDA-MB-231 breast | ACHN renal
0.393 µM: RPMI-8226 leukemia
0.314 µM: MCF7 breast
0.413 µM: UO-31 renal
0.327 µM: SN12C renal
0.6 µM: U251 CNS
0.323 µM: HOP-62 NSCLC
0.546 µM: SF-268 CNS
0.335 µM: SNB-75 CNS
0.218 µM: M14 melanoma
0.756 µM: SW-620 colon
0.518 µM: HS 578T breast
0.456 µM: NCI-H226 lung
0.263 µM: HCT-15 colon
0.208 µM: MDA-MB-435
1 µM: SF-295 CNS
0.192 µM: HOP-92 NSCLC
0.251 µM: OVCAR-8 ovarian
0.437 µM: OVCAR-5 ovarian
0.115 µM: HCT-116 colon
0.0601 µM: DU-145 prostate
0.232 µM: LOX IMVI melanoma
0.348 µM: 786-0 renal
0.297 µM: SF-539 CNS
0.23 µM: RXF 393 renal
0.397 µM: EKVX NSCLC
0.268 µM: PC-3 prostate
0.781 µM: SK-OV-3 ovarian
0.271 µM: OVCAR-4 ovarian
0.449 µM: KM12 colon
0.408 µM: T-47D breast
0.188 µM: HCC-2998 colon
0.107 µM: COLO 205 colon

CC1=C(C(=O)NNC(=O)c2ccccc2)CC(C(=O)NNC(=O)c2ccccc2)=C(C)N1
not listed: SNB-75 CNS | MALME-3M melanoma
> 100 µM: all other assays above

COc1ccc(-c2nc3ccccc3c(=O)[nH]2)c(OC)c1
83.4 µM: RPMI-8226 leukemia
not listed: NCI-H522 lung | HL-60(TB) leukemia | K-562 leukemia | LOX IMVI melanoma | SF-539 CNS | TK-10 renal | SK-MEL-28 melanoma | HOP-92 NSCLC
> 100 µM: all other assays above

CCCCCCCCCCCC(=O)c1c(O)cc(C)oc1=O
93.3 µM: SF-539 CNS
68.6 µM: SK-MEL-5 melanoma
not listed: OVCAR-4 ovarian | RXF 393 renal | HOP-92 NSCLC
> 100 µM: all other assays above
